{"source": "patent US20040038950A1", "about": "“Pharmaceutical composition for treating IL-1 related diseases or disorders” (priority 2002, published 2004)", "key": {"TIMP-1 mRNA": {"system": "TIMP-1 mRNA", "test": "RT-PCR of TIMP-1 mRNA in chondrocytes", "type": "cell-based, human", "procedure": "(§1) Chondrocytes were isolated from the knee joint of patient undergoing a knee replacement due to osteoarthritis. Cartilage was digested with 0.2% protease Type XIV (Sigma) for 1 hour, followed by 3-hour incubation with 0.2% collagenase Type IA (Sigma) at 37° C. Following the incubation, the undigested cartilage fragments were removed using a 70 μm Nylon sieve. Chondrocytes were washed with DPBS and maintained in monolayer culture for 7 days in Dulbecco's modified Eagle's medium (DMEM; Life Technologies Inc.) which contained 10% fetal bovine serum (FBS; Life Technologies), 100 units/ml penicillin-streptomycin (Life Technologies) and 25 μg/ml L-ascorbic acid (Sigma). All experiments were performed with primary or first passage cells. The preparation of chondrocytes in alginate beads was carried out with 4×10^6 cells per 1 ml of alginate. Alginate cultures were maintained for 7 days at 37° C., 5% CO2 and 95% humidity and incubated with various concentrations of DHEA (0, 10, 50 or 100 μM) for a varing period of time. DHEA was purchased from Sigma and used after dissolving either in ethanol or dimethyl sulfoxide (DMSO). After a desired incubation period, cells were harvested by solubilizing the alginate beads in citrate buffer (55 mM sodium citrate, 0.15 M NaCl, pH 7.0) for 10 min at 37° C. and by centrifugation (300 g, 5 min).\nTotal RNA from chondrocytes was extracted using RNeasy Mini Kit (QIAGEN). Reverse transcription from 1 μg of total RNA was conducted using First Strand cDNA Synthesis Kit (MBI Fermentas) according to manufacturer's recommendation with random hexamers. The resulting cDNA was then amplified by polymerase chain reaction using AccuPower PCR Premix (Bioneer, Korea) in a final volume of 20 μl using three thermocycler temperatures (30 sec at […], 30 sec at 60° C., and 30 sec at […]). All reactions were determined to be in the linear range of amplification with the cycle number ranging from 14 to 30. The PCR products were analyzed by separation on a 2% agarose gel followed by ethidium bromide staining. Following electrophoresis, photographs were taken and analyzed using a densitometric program (TINA; Raytest Isotopenmeβgerate, Germany). Integrated density values for the genes in question were then normalized to the glyceraldehyde-3-phosphate dehydrogenase (GAPDH) values for a semiquantitative assessment. After normalizing with respect to GAPDH, percentage increase or decrease was determined. Each experiment was repeated at least three times. […]"}, "MMP-3": {"system": "MMP-3", "test": "Western blot of MMP-3 in chondrocyte lysates", "type": "cell-based, human", "settings": "0, 10 or 100 μ DHEA, three days", "procedure": "as §1, with “After a desired incubation period, cells were harvested by solubilizing the alginate beads in citrate buffer (55 mM sodium citrate, 0.15 M NaCl, pH 7.0) for 10 min at 37° C. and by centrifugation (300 g, 5 min).” left out\nTo investigate the effect of DHEA on the protein concentration, Western blot analysis was performed. […] Protein concentration of the supernatant was determined by Bio-Rad protein assay (Bio-Rad, USA) using bovine serum albumin (BSA) as a standard. […]"}, "MMP-3 expression": {"system": "MMP-3 expression", "test": "Osteoarthritic rabbit model (ACLT), intraarticular injection, RT-PCR of MMP-3", "type": "in vivo", "settings": "rabbit ACLT knee, intraarticular once a week for 5 weeks", "procedure": "Mature New Zealand White rabbits underwent bilateral anterior cruciate ligament transection (ACLT). ACLT was performed using a medial arthrotomy method. Postoperatively the animals were permitted cage (60 cm×60 cm×40 cm) activity without immobilization. The right knees received via intraartiticular injection DHEA, DHEA-pyruvate or DHEA+HA, 4 weeks after ACLT and once a week for 5 weeks. The left knees received 0.3 ml of intraarticular injection with control solution (carrier solution). After 9 weeks from ACLT, the animas were sacrificed.\nSynovium (entire tissue) around the infrapatellar fat pads and cartilage tissue from the femoral condyle and the tibial plateau were harvested. The subsequent experimental procedure was the same as described in Test Example IV."}}}
{"smiles": "C[C@]12CC[C@H](O)CC1=CC[C@@H]1[C@@H]2CC[C@]2(C)C(=O)CC[C@@H]12", "note": "[DHEA, dehyroepiandrosterone]", "values": [{"measurement": "TIMP-1 mRNA expression, maximum rate of enhancement", "setting": "TIMP-1 mRNA; 50 μM, 72 hours", "value": 120, "unit": "%"}, {"measurement": "TIMP-1 mRNA expression, up-regulation", "setting": "TIMP-1 mRNA; 100 μM, after 72 hr", "value": 129, "unit": "%"}, {"measurement": "TIMP-1 mRNA expression", "setting": "TIMP-1 mRNA; 100 μM, up to 48 hr", "value": "unaffected"}, {"measurement": "TIMP-1 mRNA enhancement effect", "setting": "TIMP-1 mRNA; DHEA concentration above 100 μM", "value": "diminished"}, {"measurement": "MMP-3 protein level (Western blot)", "setting": "MMP-3", "value": "did not change"}, {"measurement": "expression of MMP-3", "setting": "MMP-3 expression", "value": "did not change"}]}
